This note sets out measurements from patent US20240335395A1, “COMPOSITIONS AND METHODS FOR PREVENTING AND/OR TREATING DISEASE ASSOCIATED WITH IL-23 EXPRESSION” (ALLSPIM, priority 2021, published 2024).

One experiment deals with IL-23. The experiment in a line: IL-23 production (ELISA of supernatant) in LPS-stimulated THP-1 cell culture, Examples 1 and 8. It is filed as cell-based, human. As to the method:
(§1) The THP-1 cell line (TIB-202) was obtained from the American Type Culture Collection (ATCC, USA), grown in RPMI 1640 culture medium (Gibco) supplemented with 10% fetal bovine serum (Gibco, UK), 50 U/mL penicillin-streptomycin (Gibco), and 0.05 mM 2-Mercaptoethanol (Gibco). Cultured cells were plated into culture plates in appropriate volumes with a cell density of 500,000 cells/mL.
PCR was performed in duplicate using SYBR Green qPCR master mix (Takara Biomedical Technology Co., Ltd, Dalian, China) on an ABI 7500 Real-Time PCR System (Thermo, USA). The cycling program was as follows: denaturation at 95° C. for 15 s, 40 cycles of 95° C. for 15 s and extension at 60° C. for 60 s, followed by melt curve generation. The ΔΔCT method was used to quantify relative mRNA levels as described in User Bulletin #2 for the ABI PRISM 7700 Sequence Detection System (Applied Biosystems, 2001). The primer sequences used in this study are 5′-[…]-3′ (forward), 5′-[…]-3′ (reverse) for human IL-23p19 (SEQ ID NOs: 4 and 5, respectively); and 5′-ACAGTCCATGCCATCACTG-3′ (forward) and 5′-AGTAGAGGCAGGGATGATG-3′ for human GAPDH as a reference (SEQ ID NOs: 6 and 7, respectively). 24 hours after culture and treatments, supernatants were collected and IL-23 levels measured using the IL-23 Human Uncoated ELISA Kit (ThermoFisher Scientific Inc., USA) according to the manufacturer's instructions. A Varioskan LUX microplate reader (Thermo Fisher, USA) was used for the assay and 4-parameter logistic regression was used for data analysis. Two duplicates per sample were performed and results were averaged.
The anti-IL-23 activity of 2,4-D was compared with the commercially prescribed nonsteroidal anti-inflammatory drugs (NSAIDs:[…], Ibuprofen, and Aspirin) in the LPS-stimulated THP-1 cell culture system described above (Example 1)).
On the technique in general: An ELISA detects its analyte on a solid surface through an enzyme-linked reagent.

Another experiment relates to TNF-alpha. The experiment in a line: MSU-induced TNF-alpha in knee joint tissue (multiplex microassay). Conditions: 2,4-D 100 mg/kg, CLC 1 mg/kg, DEX 0.5 mg/kg. In kind it is in vivo, mouse. Here is the method:
Mice (six per group) were treated with 2,4-D (100 mg/kg or 20 mg/kg, i.p.), CLC (1 mg/kg or 0.2 mg/kg, i.p.), DEX (0.5 mg/kg or 0.1 mg/kg, i.p.), or vehicle (20% polyoxyethylenesorbitan monooleate (Tween 80) plus PBS) 30 min before intra-articular stimulus with MSU (100 μg/10 μL, i.a.). Six mice with intra-articular injection with PBS alone served as a negative control.
Induction of MSU-Induced Knee Joint Inflammation. Male ICR (CD-1) mice (35-45 g, 10-12 weeks) were purchased from VitalRiver Inc (Beijing, China) and were kept in an animal care facility under controlled temperature of 21±1° C., humidity, and on a light/dark cycle, with ad libitum access to water and standard laboratory chow diet. Animal care and handling procedures were approved by the Animal Ethics Committee of GZUCM (Guangzhou University of Chinese Medicine). All efforts were made to minimize animal suffering and to reduce the number of animals used. Joint inflammation was induced by the intra-articular (i.a.) administration of MSU (200 μg/20 μl) into the right and left knee joints of mice under inhaled 3% isoflurane anesthesia. Control animals received an injection (i.a.) of sterile PBS (20 μL).
Cytokine Measurement. Mice were anesthetized and sacrificed. Knee joints were collected and frozen in liquid nitrogen. Samples were then homogenized in 500 μl of buffer containing protease inhibitors, centrifuged (3600 rpm, 4° C., 15 min) and supernatants were used to determine Th1/Th2/Th17 cytokine levels using a multiplex microassay (Qantibody® mouse TH17 Array 1 kit, Cat. No.: QAM-TH17-1; RayBiotech, Norcross, GA). Results were expressed as picograms (pg) of cytokine/mg of tissue.
Statistical Analysis. […] For in vitro experiments, microassays were performed in quadruplicate. p<0.05 was considered significant (*p<0.05, **p<0.01, ***p<0.001).

The next experiment has as its system IL-23 gene (IL-23p19). In words: IL-23 gene expression (RT-qPCR) in LPS-stimulated THP-1 cell culture. It is filed as cell-based, human. Conditions: THP-1, LPS 10 ng/ml, 2 h. Here is the method: as §1
At two hours after stimulation with LPS (10 ng/ml) in the presence or not of 2,4-D at increasing concentrations, THP-1 cells from each experimental condition were directly lysed using TRIzol reagent (Invitrogen, USA) followed by RNA extraction according to the manufacturer's instructions. Finally, RNA was dissolved in 10 μL diethyl pyrocarbonate (DEPC)-treated water, quantified on a NanoDrop 2000 spectrophotometer (Thermo Scientific Inc., USA), and reverse-transcribed using the Super Script III First-Strand Synthesis System for RT-PCR kit (Thermo Scientific, USA) according to the manufacturer's instructions.
PCR was performed in duplicate using SYBR Green qPCR master mix (Takara Biomedical Technology Co., Ltd, Dalian, China) on an ABI 7500 Real-Time PCR System (Thermo, USA). […] The ΔΔCT method was used to quantify relative mRNA levels as described in User Bulletin #2 for the ABI PRISM 7700 Sequence Detection System (Applied Biosystems, 2001). […]
For orientation: Quantitative PCR measures a nucleic acid by following its amplification.

Regarding `COc1cc(O)c(OC)c(O)c1C(=O)/C=C/c1ccccc1` [2,4-D, 2′,4′-dihydroxy-3′,6′-dimethoxychalcone], the “decrease of IL-23 detected in culture supernatant” value in the experiment on IL-23 (LPS-stimulated THP-1, 24 h) is listed as “more than 90%”. Further, the “inhibition in IL-23 production/release in supernatant” value with IL-23 (LPS-stimulated THP-1, Example 8) is listed as 5 to 10 fold. The “concentration of maximum inhibition of IL-23 cytokine production” value with IL-23 (LPS-stimulated THP-1 cell culture) worked out at 20 µg/mL. For the same compound, the “decrease of TNF-alpha in knee joint tissue” value in the experiment on TNF-alpha is listed as 1.9 fold. The IL-23 gene expression entry with IL-23 gene (IL-23p19) is “strongly inhibited”.
